This is an account of results in patent publication US9790496B2, “Microrna compounds and methods for modulating MIR-21 activity” (Regulus Therapeutics, Inc., priority 2011, dated 2017).

For one data set, the system named is miR-21. Put plainly: miR-21 luciferase sensor assay in Hela cells. The class given is cell-based. To be noted: Hela cells. The procedure:
The compounds were assessed for miR-21 inhibitory activity in a luciferase assay. A microRNA luciferase sensor construct was engineered using pGL3-MCS2 (Promega). The construct was introduced into Hela cells to test the ability of anti-miR compounds to inhibit activity of miR-21. In this assay, miR-21 present in the Hela cells binds to its cognate site(s) in the luciferase sensor construct, and suppresses luciferase expression. When the appropriate anti-miR is introduced into the cells, it binds to miR-21 and relieves suppression of luciferase expression. Thus, in this assay anti-miRs that are effective inhibitors of miR-21 expression will cause an increase in luciferase expression.
Day 1: Hela cells (ATCC), stably transfected with a luciferase construct engineered to contain a sequence complementary of miR-21, were seeded in T-170 flasks (BD Falcon) at 3.5*10^6 cells/flask. Hela cells were grown in Dulbecco's Modified Eagle Medium with High Glucose (Invitrogen).
Day 2: Each flask of Hela cells was transfected with 0.5 ug of a phRL sensor plasmid (Promega) expressing Renilla to be used in normalization. Hela cells were transfected using 20 ul Lipofectamine 2000/flask (Invitrogen). After 4 hours of transfection, cells were washed with PBS and trypsinized. Hela cells were plated at 40 k/well in 24 well plates (BD Falcon) and left overnight.
Day 3: Hela cells were transfected with anti-miRs using Lipofectin (Invitrogen) at 2.5 ul Lipofectin/100 nM ASO/ml Opti-MEM I Reduced Serum Medium (Invitrogen) for 4 hours. After ASO transfection, Hela cells were refed with Dulbecco's Modified Eagle Medium with High Glucose (Invitrogen).
Day 4: Hela cells are passively lysed and luciferase activity measured using the Dual-Luciferase Reporter Assay System (Promega).
The luciferase assay was performed to test the ability of anti-miRs with the nucleoside patterns described herein to inhibit the activity of miR-21. Results were compared to a ‘mock’ treatment, in which cells received no anti-miR treatment. The experiment was repeated and results of two experimental replicates are shown in the following Table B, as the luciferase value normalized to beta-galactosidase activity.
The luciferase assay was performed as described herein to test the ability of anti-miRs in Table F to inhibit the activity of miR-21. Results were compared to a ‘mock’ treatment, in which cells received no anti-miR treatment. The experiment was repeated and results of two experimental replicates are shown in the following Table D, as fold change in luciferase value relative to the mock treatment.

The subject of data set [1] is collagen 1A1 and collagen 3A1 expression in kidney, unilateral ureteral obstruction (UUO) model. As to the kind of experiment: UUO model of kidney fibrosis: kidney collagen 1A1 and collagen 3A1 expression by real-time PCR. The class given is in vivo, mice. The following applies: for Collagen 1A1 (Normalized Expression), individual animal / Collagen 3A1 (Normalized Expression), individual animal: UUO, 20 mg/kg at days -3, -1, +5 (prophylactic), kidney at day 11, real-time PCR normalized to GAPDH then sham, 20 mg/kg; for reduction in collagen expression (in words): meta-analysis of repeated UUO studies, 20 mg/kg at days -3, -1, +5. The procedure: Unilateral ureteral obstruction (UUO) is a well-established experimental model of renal injury leading to interstitial fibrosis, and thus is used as an experimental model that is reflective of human kidney disease. UUO is induced by surgically ligating a single ureter. As fibrosis is characterized by an increase in collagen, the presence and extent of kidney fibrosis may be determined by measuring collagen content. Both collagen 1A1 (Col 1A1) and collagen 3A1 (Col 3A1) are measured to assess collagen content. Kidney fibrosis may be visualized by staining tissue samples with picro-sirius red to detect increases in collagen content. Kidney fibrosis may also be observed by measuring the amount of hydroxyproline, which is a major component of collagen, in a sample.
The cEt-containing anti-miR-21 compounds found to be active in the luciferase assay were tested in the UUO model of kidney fibrosis. 25919 comprising 2′-MOE and 2′-fluoro modifications is known to inhibit miR-21 activity in vivo and was included as a positive control. Groups of 8 animals each were treated as follows: UUO only, UUO with PBS, or UUO with anti-miR-21 compound. Relative to the day of the UUO procedure, PBS or anti-miR-21 compound was administered at days −3, −1, and +5. Anti-miR-21 compounds were administered at a dose of 20 mg/kg. As the anti-miR compounds were administered prior to the UUO procedure, this dosing regimen is considered a prophylactic treatment. At day 11, animals were sacrificed and kidney was isolated for measurement of collagen expression. Collagen expression was measured by real-time PCR and normalized first to GAPDH and then to the sham control animals. […]

Data set [2] concerns ischemia reperfusion injury (IRI) model. As to the kind of experiment: Unilateral IRI model: collagen area fraction of kidney tissue. The class given is in vivo, mouse. The procedure:
(§1) A model of ischemia reperfusion injury (IRI) is created in the mouse through unilateral or bilateral clamping of kidney arteries, which leads to tubule damage, inflammation, and fibrosis. Kidney dysfunction can occur either early (<5 days) or late (>7 days) in this model, with the early time points useful to test candidate agents for the treatment of acute kidney injury, and the later time points useful to model chronic fibrosis.
(§2) Anti-miR-21 compounds were tested in the unilateral IRI model. Unilateral IRI was induced for a period of 30 minutes. Treatment groups were as follows: sham IRI procedure; IRI with PBS administered subcutaneously; IRI with anti-miR-21 compound 25070 administered intraperitoneally at a dose of 20 mg/kg; the 2′-fluoro/2′-MOE modified anti-miR-21 25919 administered intraperitoneally at a dose of 20 mg/kg; and a 2′-fluoro/2′ modified mismatch anti-miR-21 (having three mismatches to the sequence of miR-21) 25319 administered intraperitoneally at a dose of 20 mg/kg. PBS or anti-miR compound was administered on days 5, 6, and 7 following IRI, and animals were sacrificed 14 days after IRI. As anti-miR compound is administered 5 days following the injury to the kidney, or later, when fibrosis has already occurred to some extent, this treatment regimen is considered a therapeutic regimen, rather than a prophylactic regimen.
(§3) Kidney tissue was collected for analysis of collagen 1A1 and collagen 3A1 expression (shown in Table O), and collagen area fraction (shown in Table P).
(§4) A similar study was performed with the same treatment groups and additional days of treatment. In this study, treatments were administered intraperitoneally at days 5, 6, 7, 14, and 21 following the IRI procedure Animals were sacrificed on Day 27, and kidney tissue was collected for analysis of collagen 1A1 and collagen 3A1 expression, as well as collagen area fraction.

Data set [3] deals with collagen 1A1 and collagen 3A1 expression in kidney, ischemia reperfusion injury (IRI) model. As to the kind of experiment: Unilateral ischemia reperfusion injury (IRI) model: kidney collagen 1A1 and collagen 3A1 expression. The class given is in vivo, mouse. To be noted: unilateral IRI. The procedure:
as §1, §2, §3, §4
In order to assess the flexibility of administration of the anti-miR-21 compound 25070, the activity of the compound in the 14 day study above, where anti-miR-21 was administered at […] following the IRI procedure, to a different 14 day study where anti-miR-21 was administered intraperitoneally at days 3, 5, and 7 following the IRI procedure.

A short description of data set [4]: Ex vivo liver homogenate stability assay (HPLC-TOF MS).
Setting [5] is: .16 nM oligonucleotide, mock transfection 45.
[6] abbreviates: .8 nM oligonucleotide, mock transfection 33.
The mark [7] stands for this setting: 4 nM oligonucleotide, mock transfection 50.
The mark [8] stands for this setting: 20 mg/kg intraperitoneally on days 5, 6, 7, sacrifice 14 days after IRI, 20 mg/kg.
[9] abbreviates: 20 mg/kg intraperitoneally on days 5, 6, 7, sacrifice 14 days after IRI, group mean.
The mark [10] stands for this setting: intraperitoneally on days 5, 6, 7, 14, 21, sacrifice Day 27.
Where [11] appears, read: 5 μM in liver homogenate (50 mg tissue per ml), 24 hours at 37° C.

“And” between values parts separate entries of the source, which are not always exact repeats. Equal values may be shown once. Strand notation (5' to 3'): a small letter for the sugar, then the base; units joined by * are phosphorothioate-linked, units joined directly phosphodiester-linked; [ ] holds rarer units or linkages, { } end groups; capitals alone tell only the bases. e = 2'-O-(2-methoxyethyl) (MOE); f = 2'-fluoro

Consider “TE^MeCAACSATCSAGTCSTGAUSAAGCSTAE (TCAACATCAGTCTGATAAGCTA; listed as DNA, chemistry not fully specified) [Compound 25082]”, for which the “luciferase value normalized to beta-galactosidase activity” value (from here on “luciferase value normalized”) in the data set on miR-21 (setting [5]) came to 70. Further, the “luciferase value normalized” value with miR-21 (setting [6]) came to 89. Further, in the data set with miR-21, the “inhibition of miR-21 in the luciferase assay (in words)” value is on record as “demonstrated inhibition of miR-21 in a dose-dependent manner”. Further, in data set [1], the “Collagen 1A1 (Normalized Expression), individual animal” value is 122.2 and 188.3 and 102.5 and 67.6 and 40.6 and 44.1 and 73.8 and 94.7; the “Collagen 3A1 (Normalized Expression), individual animal” value (from here on “Collagen 3A1 (Normalized Expression)”) is 62.9 and 78.9 and 82.2 and 43.8 and 32.6 and 34.3 and 75.8 and 62.5; the “reduction in collagen expression (in words)” value is recorded as “did not consistently demonstrate a reduction in collagen expression”.

Regarding “AECSAETECSAEGETECSTEGEAEUSAEAEGECSTEAE (ACATCAGTCTGATAAGCTA; S-cEt/2'-MOE, phosphorothioate, chemistry not fully specified) [Compound 25072]”, the “luciferase value normalized” value with miR-21 (setting [7]) is 76; in the data set with miR-21 (20 nM oligonucleotide, mock transfection 47) it was 86; with miR-21 (setting [5]), 40; in the data set with miR-21 (setting [6]), 49. The “inhibition of miR-21 in the luciferase assay (in words)” value with miR-21 is listed as “demonstrated inhibition of miR-21 in a dose-dependent manner”. Moreover, the “Collagen 1A1 (Normalized Expression), individual animal” value in data set [1] is 96.2 and 85.7 and 127.4 and 100.0 and 159.2 and 120.5 and 108.0. For the same substance, the “Collagen 3A1 (Normalized Expression)” value in data set [1] was 69.4 and 54.5 and 58.8 and 69.2 and 93.8 and 65.8 and 46.9. The “reduction in collagen expression (in words)” value in data set [1] is given as “did not consistently demonstrate a reduction in collagen expression”.

Turning to “UECEAFAFCFAFUFCFAFGFUFCEUEGEAFUFAFAFGFCFUEAE (eU*eC*fA*fA*fC*fA*fU*fC*fA*fG*fU*eC*eU*eG*fA*fU*fA*fA*fG*fC*eU*eA) [Compound 25919, positive control, reference compound]”, the “Collagen Area Fraction (#), individual animal” value in data set [2] (setting [8]) was 7.093 and 8.254 and 8.095 and 8.559 and 8.681 and 6.31 and 8.416 and 9.905; in data set [2] (setting [10]), 11.882 and 9.755 and 9.506 and 12.654 and 20.319 and 11.551 and 12.224 and 14.468. For the same substance, the “Collagen Area Fraction (#), Mean” value in data set [2] (setting [9]) is recorded as 8.2. In addition, the “luciferase value normalized” value in the data set with miR-21 (setting [7]) is recorded as 84; in the data set with miR-21 (setting [5]) it was 40; in the data set on miR-21 (setting [6]) it was 53. Moreover, the “Collagen 1A1 (Normalized Expression), individual animal” value is 108.7 and 103.9 and 29.5 and 95.8 and 35.5 and 42.2 and 64.1 and 96.4 in data set [3] (setting [8]); 75.5 and 50.4 and 49.2 and 43.2 and 41.7 and 53.6 and 44.8 and 28.0 in data set [3] (setting [10]); 150.2 and 54.2 and 84.6 and 67.7 and 78.7 and 62.2 and 89.2 and 106.2 in data set [1]. Moreover, the “Collagen 3A1 (Normalized Expression)” value in data set [3] (setting [8]) is 87.5 and 72.3 and 14.3 and 104 .4 and 27.1 and 34.9 and 56.1 and 82.8; in data set [3] (setting [10]) it was 40.2 and 43.1 and 34.5 and 35.7 and 41.1 and 36.9 and 24.5 and 22.9; in data set [1], 67.1 and 33.9 and 87.6 and 47.3 and 67.7 and 46.7 and 47.0 and 57.8. Moreover, in data set [3] (setting [9]), the “Collagen 1A1 (Normalized Expression), Mean” value is 72.0.

Consider “AECSATCSAGTCSTGAUSAAGCSTAS (ACATCAGTCTGATAAGCTA; 2'-MOE and cEt modifications) [Compound 25923]”, for which, in data set [4] (setting [11]), the “compound lacking the 3'-terminal nucleoside” value is recorded as “about 18%” and the “compound present as the full-length compound” value is listed as “About 68%”. Moreover, in data set [4] (5 μM oligonucleotide in liver homogenate (50 mg tissue per ml), 24 hours, 37° C., decrease of full-length compound), the “ex vivo (liver) N %↓” value turned out to be 17%. Also, in data set [4] (5 μM oligonucleotide in liver homogenate, 24 hours, 37° C., compound lacking one terminal nucleoside), the “ex vivo (liver) % N-1” value is 13%. Besides, the “ex vivo (liver) % Endo” value in data set [4] (5 μM oligonucleotide in liver homogenate, 24 hours, 37° C., endonuclease products) is recorded as 2-3%.
